Data published in article PMC3574217 (Journal of medicinal chemistry, 2013).

Legend:
[1] = tested on: LAD ligation model of ischemic heart failure in mice; assay: LAD ligation ischemic heart failure model, echocardiography-derived FS; type: in vivo, mouse; details: infusion 28 days
[2] = tested on: LAD ligation model of ischemic heart failure in mice; assay: Ex vivo isolated working heart preparation; type: in vivo, mouse; details: infusion 28 days
[3] = tested on: CSQ-overexpressing mice with heart failure; assay: CSQ-overexpressing mouse model of heart failure; type: in vivo
cardiac P2X4R = details: cardiomyocytes obtained from the CSQ mouse; cited from earlier work
[4] = tested on: CSQ-overexpressing mice with heart failure; details: chronic administration; cited from earlier work
aorta ring preparations = details: cited from earlier work
[5] = tested on: adult WT murine cardiac ventricular myocytes; assay: Contractile response; type: cell-based, mouse; details: vs control basal condition, P<0.05
[6] = 24 h
Stability in rat plasma = details: 24 h, 37°C
[7] = Stability in rat liver microsomes; details: 24 h, 37°C

Row | Structure (SMILES) | protection in the LAD model (increase in FS), in words [1] | protection in ex vivo working heart (+dP/dt), in words [2] | cardioprotection in CSQ model, in words ([3]; infusion) | other results
1 | [2H]C([2H])(OP(=O)(O)O)[C@@]12C[C@@H]1[C@@H](n1cnc3c(N)nc(Cl)nc31)[C@H](O)[C@@H]2O [Compound 4, (1’S,2’R,3’S,4’R,5’S)-4-(6-Amino-2-chloro-9H-purin-9-yl)-1-[phosphoryloxydideuteromethyl]-2,3-diol-bicyclo[3.1.0]hexane] | significantly protective |  |  | 
2 | Nc1nc(I)nc2c1ncn2[C@H]1[C@H](O)[C@H](O)[C@]2(CP(=O)(O)O)C[C@H]12 [Compound 6, (1’S,2’R,3’S,4’R,5’S)-4’-(6-Amino-2-iodoropurin-9-yl)-2’,3’-(dihydroxy)-1’-(phosphonomethylene)-bicyclo[3.1.0]hexane] |  | able to improve function | abolished protection | effect on FS in CSQ mice ([3]; infusion, compared to vehicle): did not improve FS; LV wall thickness in CSQ mice, in words ([3]; vs NS-infused CSQ mice): did not improve FS (Table S2) or prevent LV wall thinning
3 | CC(C)(C)OP(=O)(OC[C@@]12C[C@@H]1[C@@H](n1cnc3c(N)nc(Cl)nc31)[C@H](O)[C@@H]2O)OC(C)(C)C [Compound 9, (1’S,2’R,3’S,4’R,5’S)-4-(6-Amino-2-chloro-9H-purin-9-yl)-2,3-(dihydroxy)-1-[(t-butylphosphate)methyl]-bicyclo[3.1.0]hexane] |  | able to improve function |  | 
4 | Nc1nc(Cl)nc2c1ncn2[C@H]1[C@H](O)[C@H](O)[C@]2(CSP(=O)(O)O)C[C@H]12 [Compound 5, (1’S,2’R,3’S,4’R,5’S)-4-(6-Amino-2-chloro-purin-9-yl)-2,3-(dihydroxy)-1-[monophosporothioate]-bicyclo-[3.1.0]hexane] |  | able to improve function | could protect | 
5 | CC(C)OP(=O)(OC[C@@]12C[C@@H]1[C@@H](n1cnc3c(N)nc(Cl)nc31)[C@H](O)[C@@H]2O)OC(C)C [Compound 8, (1’S,2’R,3’S,4’R,5’S)-4-(6-Amino-2-chloro-9H-purin-9-yl)-1-[(diisopropylphosphate)methyl]-2,3-(dihydroxy)-bicyclo[3.1.0]hexane] | highly protective |  |  | 
6 | CCOP(=O)(OCC)SC[C@@]12C[C@@H]1[C@@H](n1cnc3c(N)nc(Cl)nc31)[C@H](O)[C@@H]2O [Compound 11, (1’S,2’R,3’S,4’R,5’S)-4-(6-Amino-2-chloro-purin-9-yl)-1-[O,O-diethyl S-methyl phosphorothioate]-2,3-(dihydroxyl)-bicyclo-[3.1.0]hexane] | protective |  |  | 
7 | CCOP(=S)(OCC)SC[C@@]12C[C@@H]1[C@@H](n1cnc3c(N)nc(Cl)nc31)[C@H](O)[C@@H]2O [Compound 13, (1’S,2’R,3’S,4’R,5’S)-4-(6-Amino-2-chloro-purin-9-yl)-1-[O,O-diethyl S-methyl phosphorodithioate]-2,3-(dihydroxyl)-bicyclo-[3.1.0]hexane] | protective |  |  | 
8 | [2H]C([2H])(OP(=O)(OCC)OCC)[C@@]12C[C@@H]1[C@@H](n1cnc3c(N)nc(Cl)nc31)[C@H](O)[C@@H]2O [Compound 10, (1’S,2’R,3’S,4’R,5’S)-4-(6-Amino-2-chloro-9H-purin-9-yl)-2,3-(dihydroxyl)-1-[(di-ethylphosphate)dideuteromethyl]bicyclo[3.1.0]hexane] | did not fully protect |  |  | 
9 | Nc1nc(Cl)nc2c1ncn2[C@H]1[C@H](O)[C@H](O)[C@@]2(COP(=O)(O)O)C[C@@H]12 [Compound 1, (1’S,2’R,3’S,4’R,5’S)-4-(6-amino-2-chloro-9H-purin-9-yl)-1-[phosphoryloxy-methyl]bicyclo[3.1.0]hexane-2,3-diol] |  |  |  | P2X-like current in cardiomyocytes (cardiac P2X4R): induced a current that is characteristic of the action of the cardiac P2X4R; cardioprotection in CSQ mouse model [4]: rescued the hypertrophic and heart failure phenotype; vasodilator action (aorta ring preparations): devoid of any vasodilator action; contraction shortening (CS) [5]: modest increase in contraction shortening; stability to acidic conditions ([6]; pH 1.5, 37°C, data not shown): stable
10 | CCOP(=O)(OCC)OC[C@@]12C[C@@H]1[C@@H](n1cnc3c(N)nc(Cl)nc31)[C@H](O)[C@@H]2O [Compound 7, (1’S,2’R,3’S,4’R,5’S)-4-(6-Amino-2-chloro-9H-purin-9-yl)-1-[(diethylphosphate)methyl]-2,3-(dihydroxy)-bicyclo[3.1.0]hexane] | highly protective | able to improve function | cardioprotective activity was seen | 
11 | CCOP(=O)(C[C@@]12C[C@@H]1[C@@H](n1cnc3c(N)nc(Cl)nc31)[C@H](O)[C@@H]2O)OCC [Compound 14, Diethyl-(1’S,2’R,3’S,4’R,5’S)-4’-(6-amino-2-chloropurin-9-yl)-2’,3’-(hydroxy)-bicyclo[3.1.0]hexane phosphonate] |  | did not protect | inactive | stability in the presence of rat plasma (Stability in rat plasma): stable; stability in aqueous medium at pH 1 ([6]; 50°C): unable to demonstrate any hydrolysis; stability in aqueous medium at pH 11 ([6]; 50°C): unable to demonstrate any hydrolysis; stability in the presence of microsomes from rat liver [7]: unable to demonstrate any hydrolysis
12 | Nc1nc(Cl)nc2c1ncn2[C@H]1[C@H](O)[C@H](O)[C@]2(CCP(=O)(O)O)C[C@H]12 [Compound 3, (1’S,2’R,3’S,4’R,5’S)-4’-(6-amino-2-chloropurin-9-yl)-2’,3’-(dihydroxy)-1’-(phosphonoethylene)-bicyclo[3.1.0]hexane] |  |  |  | cardioprotection in CSQ mouse model [4]: protective; contraction shortening (CS) [5]: modest increase in contraction shortening
